# Source: US8853420B2, “Compounds” (Boehringer Ingelheim International GmbH, priority 2008, dated 2014)
# Molecular target: T1, Xenopus laevis Aurora B/INCENP complex (Xenopus laevis, UniProt Q6DE08)
# T1 construct: equipped at the N-terminal position with a GST tag (amino acids 60-361); GST (N, cleaved yes); made in house; host or cells: E. coli BL21 (DE3)
# Assay: Aurora-B kinase assay (radioactive enzyme inhibition assay)
# Type: biochemical
# Settings: test substance at 1 μM; percentage of the positive control (maximum value without test substance)
# From the text: Example Aurora-B Kinase Assay
# A radioactive enzyme inhibition assay was developed using E. coli-expressed recombinant Xenopus laevis Aurora B wild-type protein equipped at the N-terminal position with a GST tag (amino acids 60-361) in a complex with Xenopus laevis INCENP (amino acids 790-847), which is obtained from bacteria and purified. In equivalent manner a Xenopus laevis Aurora B mutant (G96V) in a complex with Xenopus laevis INCENP^790-847 may also be used.
# Expression and Purification
# The coding sequence for Aurora-B^60-361 from Xenopus laevis is cloned into a modified version of pGEX-6T (Amersham Biotech) via BamHI and SalI cutting sites. The vector contains two cloning cassettes which are separated by a ribosomal binding site, allowing bi-cistronic expression. In this configuration Xenopus laevis Aurora B is expressed by the first cassette, and the Xenopus laevis INCENP^790-847 is expressed by the second cassette. The resulting vector is pAUB-IN^847.
# First of all the E. coli strain BL21 (DE3) is co-transformed with pUBS520 helper plasmid and pAUB-IN^847, after which protein expression is induced using 0.3 mM IPTG at an OD600 of 0.45-0.7. The expression is then continued for approx. 12-16 h at 23-25° C. with agitation.
# The bacteria are then removed by centrifuging and the pellet is lysed in lysis buffer (50 mM Tris/Cl pH 7.6, 300 mM NaCl, 1 mM DTT, 1 mM EDTA, 5% glycerol, Roche Complete Protease Inhibitor tablets) using ultrasound, using 20-30 mL lysis buffer per liter of E. coli culture. The lysed material is freed from debris by centrifugation (12000 rpm, 45-60 min, JA20 rotor). The supernatant is incubated with 300 μL of equilibrated GST Sepharose Fast Flow (Amersham Biosciences) per liter of E. coli culture for 4-5 h at 4° C. Then the column material is washed with 30 volumes of lysis buffer and then equilibrated with 30 volumes of cleavage buffer (50 mM Tris/Cl pH 7.6, 150 mM NaCl, 1 mM DTT, 1 mM EDTA). To cleave the GST tag from Aurora B, 10 units of Prescission Protease (Amersham Biosciences) are used per milligram of substrate and the mixture is incubated for 16 h at 4° C. The supernatant which contains the cleavage product is loaded onto a 6 mL Resource Q column (Amersham Biosciences) equilibrated with ion exchange buffer (50 mM Tris/Cl pH 7.6, 150 mM NaCl, 1 mM DTT, 1 mM EDTA). The Aurora B/INCENP complex is caught as it flows through, then concentrated and loaded onto a Superdex 200 size exclusion chromatography (SEC) column equilibrated with SEC buffer (10 mM Tris/Cl pH 7.6, 150 mM NaCl, 1 mM DTT, 1 mM EDTA). Fractions which contain the AuroraB/INCENP complex are collected and concentrated using Vivaspin concentrators (molecular weight exclusion 3000-5000 Da) to a final concentration of 12 mg/mL. Aliquots (e.g. 240 ng/μL) for kinase assays are transferred from this stock solution into freezing buffer (50 mM Tris/Cl pH 8.0, 150 mM NaCl, 0.1 mM EDTA, 0.03% Brij-35, 10% glycerol, 1 mM DTT) and stored at −80° C.
# Test substances are placed in a polypropylene dish (96 wells, Greiner #655 201), in order to cover a concentration frame of 10 μM-0.0001 μM. The final concentration of DMSO in the assay is 5%. 30 μL of protein mix (50 mM tris/Cl pH 7.5, 25 mM MgCl2, 25 mM NaCl, 167 μM ATP, 10 ng Xenopus laevis Aurora B/INCENP complex in freezing buffer) are pipetted into the 10 μl of test substance provided in 25% DMSO and this is incubated for 15 min at RT. Then 10 μL of peptide mix (100 mM tris/Cl pH 7.5, 50 mM MgCl2, 50 mM NaCl, 5 μM NaF, 5 μM DTT, 1 μCi gamma-P33-ATP [Amersham], 50 μM substrate peptide [biotin-[…] or multimers thereof, or biotin-[…] or multimers thereof, or biotin-[…]]) are added. The reaction is incubated for 75 min (ambient temperature) and stopped by the addition of 180 μL of 6.4% trichloroacetic acid and incubated for 20 min on ice. […]
# T1 sequence (Q6DE08 60-361): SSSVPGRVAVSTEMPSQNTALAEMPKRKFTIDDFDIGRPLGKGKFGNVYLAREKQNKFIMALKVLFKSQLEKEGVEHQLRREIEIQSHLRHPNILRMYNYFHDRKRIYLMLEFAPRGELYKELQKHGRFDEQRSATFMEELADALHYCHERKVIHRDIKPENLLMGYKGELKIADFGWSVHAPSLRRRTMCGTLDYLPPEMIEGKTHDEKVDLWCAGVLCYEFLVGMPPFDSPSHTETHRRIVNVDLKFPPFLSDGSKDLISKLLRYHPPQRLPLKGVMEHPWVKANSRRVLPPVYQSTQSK
# T1 sequence (O13024 790-847 partner limits assumed): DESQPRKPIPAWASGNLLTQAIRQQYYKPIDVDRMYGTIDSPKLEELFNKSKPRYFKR
row,Compound,remaining activity at 1 µM [%]
1,CC(C)Nc1ncc(-c2ccc3c(c2)NC(=O)/C3=C(\NC2CCN(C)CC2)c2ccccc2)cn1 [Example 79],103
2,COc1cc(N/C(=C2\C(=O)Nc3cc(-c4cnc(NC(C)C)nc4)ccc32)c2ccccc2)ccc1C(=O)O [Example 80],2.32
3,CC(C)Nc1ncc(-c2ccc3c(c2)NC(=O)/C3=C(\Nc2ccc(C(C)(C)C(=O)O)cc2)c2ccccc2)cn1 [Example 81],1.26
4,COC(=O)C(C)(C)c1ccc(N/C(=C2\C(=O)Nc3cc(-c4cnc(NC(C)C)nc4)ccc32)c2ccccc2)cc1 [Example 82],5.13
5,CC(C)Nc1ncc(-c2ccc3c(c2)NC(=O)/C3=C(\Nc2ccc(C(=O)O)cc2)c2ccccc2)cn1 [Example 83],1.04
6,COC(=O)c1ccc(N/C(=C2\C(=O)Nc3cc(-c4cnc(NC(C)C)nc4)ccc32)c2ccccc2)cc1 [Example 84],65.2
7,CNc1ccc(N/C(=C2\C(=O)Nc3cc(-c4cnc(NC(C)C)nc4)ccc32)c2ccccc2)cc1 [Example 85],50.3
8,CC(C)Nc1ncc(-c2ccc3c(c2)NC(=O)/C3=C(\Nc2ccc(N3CCN(C)CC3)nc2)c2ccccc2)cn1 [Example 86],16.8
9,Cc1cc(N/C(=C2\C(=O)Nc3cc(-c4cnc(NC(C)C)nc4)ccc32)c2ccccc2)ccn1 [Example 87],2.67
10,CC(C)Nc1ncc(-c2ccc3c(c2)NC(=O)/C3=C(\Nc2ccc(OCCN3CCCC3)cc2)c2ccccc2)cn1 [Example 88],3.13
11,CC(C)Nc1ncc(-c2ccc3c(c2)NC(=O)/C3=C(\Nc2ccc(OCCCN(C)C)cc2)c2ccccc2)cn1 [Example 89],5.97
12,CC(C)Nc1ncc(-c2ccc3c(c2)NC(=O)/C3=C(\Nc2cccc(CN3CCCC3)c2)c2ccccc2)cn1 [Example 91],9.48
13,CC(C)Nc1ncc(-c2ccc3c(c2)NC(=O)/C3=C(\Nc2ccc(N3CCN(C)CC3)cc2)c2ccccc2)cn1 [Example 92],3.85
14,CC(C)Nc1ncc(-c2ccc3c(c2)NC(=O)/C3=C(\Nc2ccc(N3CCN(C)[C@@H](C)C3)cc2)c2ccccc2)cn1 [Example 93],2.92
15,CC(C)Nc1ncc(-c2ccc3c(c2)NC(=O)/C3=C(\Nc2ccc3c(c2)CN(C)C3)c2ccccc2)cn1 [Example 94],5.83
16,CC(C)Nc1ccc(-c2ccc3c(c2)NC(=O)/C3=C(\Nc2ccc(C(C)(C)C(=O)N3CCN[C@@H](C)C3)cc2)c2ccccc2)cn1 [Example 99],4.64
17,CC(C)Nc1ccc(-c2ccc3c(c2)NC(=O)/C3=C(\Nc2ccc(C(C)(C)C(=O)N3CC[C@H](N(C)C)C3)cc2)c2ccccc2)cn1 [Example 100],3.36
18,CC(C)Nc1ccc(-c2ccc3c(c2)NC(=O)/C3=C(\Nc2ccc(C(C)(C)C(=O)N3CC[C@@H](N(C)C)C3)cc2)c2ccccc2)cn1 [Example 101],3.62
19,CC(C)Nc1ccc(-c2ccc3c(c2)NC(=O)/C3=C(\Nc2ccc(C(C)(C)C(=O)NC3CCN(C)CC3)cc2)c2ccccc2)cn1 [Example 102],2.07
20,CC(C)Nc1ccc(-c2ccc3c(c2)NC(=O)/C3=C(\Nc2ccc(C(C)(C)C(=O)N(C)C3CCN(C)CC3)cc2)c2ccccc2)cn1 [Example 103],3.84
21,CCN1CCC2(CCN(C(=O)c3ccc(N/C(=C4\C(=O)Nc5cc(-c6ccc(NC(C)C)nc6)ccc54)c4ccccc4)cc3OC)C2)C1 (centres unmarked) [Example 104],1.71

row,Compound,remaining activity at 1 µM [%]
1,COc1cc(N/C(=C2\C(=O)Nc3cc(-c4ccc(NC(C)C)nc4)ccc32)c2ccccc2)ccc1C(=O)N1CCCN(C)CC1 [Example 105],1.57
2,COc1cc(N/C(=C2\C(=O)Nc3cc(-c4ccc(NC(C)C)nc4)ccc32)c2ccccc2)ccc1C(=O)N1CCN(C(C)C)CC1 [Example 106],2.94
3,COc1cc(N/C(=C2\C(=O)Nc3cc(-c4ccc(NC(C)C)nc4)ccc32)c2ccccc2)ccc1C(=O)N1CCC(N(C)C)CC1 [Example 107],1.66
4,COc1cc(N/C(=C2\C(=O)Nc3cc(-c4ccc(NC(C)C)nc4)ccc32)c2ccccc2)ccc1C(=O)N1C[C@H]2C[C@@H]1CN2C [Example 108],1.45
5,COc1cc(N/C(=C2\C(=O)Nc3cc(-c4ccc(NC(C)C)nc4)ccc32)c2ccccc2)ccc1C(=O)N1CCN(C)CC1 [Example 109],2.08
6,COc1cc(N/C(=C2\C(=O)Nc3cc(-c4ccc(NC(C)C)nc4)ccc32)c2ccccc2)ccc1C(=O)N1CC[C@H](N(C)C)C1 [Example 110],1.54
7,COc1cc(N/C(=C2\C(=O)Nc3cc(-c4ccc(NC(C)C)nc4)ccc32)c2ccccc2)ccc1C(=O)N(C)CCN(C)C [Example 111],2.35
8,COc1cc(N/C(=C2\C(=O)Nc3cc(-c4ccc(NC(C)C)nc4)ccc32)c2ccccc2)ccc1C(=O)N(C)C1CCN(C)CC1 [Example 112],1.7
9,CCN1CCN(C(=O)c2ccc(N/C(=C3\C(=O)Nc4cc(-c5ccc(NC(C)C)nc5)ccc43)c3ccccc3)cc2)CC1 [Example 113],4.25
10,CC(C)CN1CCN(C(=O)c2ccc(N/C(=C3\C(=O)Nc4cc(-c5ccc(NC(C)C)nc5)ccc43)c3ccccc3)cc2)CC1 [Example 114],7.11
11,CC(C)Nc1ccc(-c2ccc3c(c2)NC(=O)/C3=C(\Nc2ccc(C(=O)N3CCN[C@H](C)C3)cc2)c2ccccc2)cn1 [Example 115],3.25
12,CCN1CCC2(CCN(C(=O)c3ccc(N/C(=C4\C(=O)Nc5cc(-c6ccc(NC(C)C)nc6)ccc54)c4ccccc4)cc3)C2)C1 (centres unmarked) [Example 117],3.03
13,CC(C)Nc1ccc(-c2ccc3c(c2)NC(=O)/C3=C(\Nc2ccc(C(=O)N3CCN(CC4CC4)CC3)cc2)c2ccccc2)cn1 [Example 118],4.44
14,CC(C)Nc1ccc(-c2ccc3c(c2)NC(=O)/C3=C(\Nc2ccc(C(=O)N3CCCN(C4CC4)CC3)cc2)c2ccccc2)cn1 [Example 119],3.54
15,CC(C)Nc1ccc(-c2ccc3c(c2)NC(=O)/C3=C(\Nc2ccc(C(=O)N3CCCN(C)CC3)cc2)c2ccccc2)cn1 [Example 120],2.75
16,CC(C)Nc1ccc(-c2ccc3c(c2)NC(=O)/C3=C(\Nc2ccc(C(=O)N3CCC(N4CCOCC4)CC3)cc2)c2ccccc2)cn1 [Example 121],3.31
17,CC(C)Nc1ccc(-c2ccc3c(c2)NC(=O)/C3=C(\Nc2ccc(C(=O)N3CCC(N4CCCC4)CC3)cc2)c2ccccc2)cn1 [Example 122],4
18,CC(C)Nc1ccc(-c2ccc3c(c2)NC(=O)/C3=C(\Nc2ccc(C(=O)N3CCN(C(C)C)CC3)cc2)c2ccccc2)cn1 [Example 123],2.69
19,CC(C)Nc1ccc(-c2ccc3c(c2)NC(=O)/C3=C(\Nc2ccc(C(=O)N3C[C@@H](C)N[C@@H](C)C3)cc2)c2ccccc2)cn1 [Example 124],3.38
20,CC(C)Nc1ccc(-c2ccc3c(c2)NC(=O)/C3=C(\Nc2ccc(C(=O)N3CCN(CC(F)(F)F)CC3)cc2)c2ccccc2)cn1 [Example 125],8.83
